The results in this text go back to article PMC7851594 (Genome Biology and Evolution, 2020).

Experiment [1] has as its target T1, drT2R3a (Danio rerio, UniProt Q2AB30).
T1 sequence (Q2AB30 1-313): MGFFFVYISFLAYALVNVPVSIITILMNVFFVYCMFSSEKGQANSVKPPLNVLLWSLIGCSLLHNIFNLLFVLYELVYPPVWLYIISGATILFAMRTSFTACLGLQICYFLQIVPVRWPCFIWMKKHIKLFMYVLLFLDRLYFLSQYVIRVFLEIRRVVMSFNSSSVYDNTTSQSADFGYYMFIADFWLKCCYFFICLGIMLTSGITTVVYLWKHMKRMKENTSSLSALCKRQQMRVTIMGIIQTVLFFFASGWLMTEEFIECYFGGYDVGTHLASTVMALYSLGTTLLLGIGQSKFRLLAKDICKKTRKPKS
In kind it is cell-based.

Experiment [2] has as its target T1, drT2R3a. In kind it is cell-based. The source holds these as a separate data set.

Take `CC[N+](CC)(CC(=O)Nc1c(C)cccc1C)Cc1ccccc1` [DB, Denatonium benzoate]: in experiment [1], the response was half-maximal at 230 ± 20 µM (EC50).

In experiment [2], `O=C1NS(=O)(=O)c2ccccc21` [saccharin] returned an IC50 of 920 ± 280 µM.

One may read the EC50 as the concentration giving half of the maximal effect. As a reminder, the IC50 is the concentration needed to halve the response being measured. Lower therefore signals greater potency.
